Experimental data as given in patent publication US9096643B2, “Cell-protective peptides and uses thereof” (priority 2010, dated 2015).
Values joined by “and” are separate entries in the source; they are usually repeats but may differ in a detail not shown here. Identical values can stand only once. No end group written: not given here.

Legend:
[1] = tested on: human iPS cells; assay: iPS cell colony number following passage; assay type: cell-based; settings: vs PBS control, FIG. 11
Method: The human iPS cells (BJ1D and 0901B) were obtained from the Ontario iPSC Facility and used following the hiPS cell research guidelines of the University of Toronto as described by Hotta et al. Nat. Protoc. 4, 1828-1844 (2009)), unless specified otherwise. Cells were cultured on a feeder layer of MEF cells (Mount Sinai Hospital Toronto, inactivated with 10 μg/ml mitomycin C and seeded at 1.8×10^5 per 3.5 cm dish). For single cell cultures, hiPS cell colonies were dissociated in 0.25% Trypsin-EDTA (Invitrogen) for 5 min, followed by trituration with a pipette. To ensure a single-cell suspension, the dissociated cells were passed through a 40 μm cell strainer (BD Falcon) and seeded onto MEF plates at 10 cells/ml, 10 cm plates. Cells were allowed to grow for 7 days and the total number of colonies was counted. In the treated groups, QHREDGS (Biomatik) or DGQESHR (Biomatik) dissolved in PBS (Lonza), were added at the reported concentrations to culture media at the onset of the first treatment passage and replenished with each media change. Media was changed by 100% every day. Peptides and controls were included during dissociation and passaging. Cells were analyzed after 5 passages in continuous treatment with 50 μM QHREDGS, 50 μM DGQESHR, or PBS, unless specified otherwise.
To determine the optimal concentration of QHREDGS for iPSC expansion, a dose-response experiment was performed. Cells were treated with 5 μM, 50 μM, or 500 μM of QHREDGS peptide, or 500 μM scrambled peptide (DGQESHR) in PBS with a PBS treated control for five passages and stained for CFDA-Live/PI-Dead. Live cells were counted using the cell counter plug in for ImageJ.

[2] = tested on: Rat neonatal cardiomyocytes; assay: ATP assay (CellTiter-Glo) in serum-starved cardiomyocytes; assay type: cell-based; settings: 500 μM peptide, 1 d
Method: Rat neonatal cardiomyocytes were incubated with PBS (control), 500 μM QHREDGS, scrambled QHREDGS peptide, GRGDSP peptide or 400 nM ang 1 or ang2 in DMEM/0.5% BSA/cytosine-β-D-arabinofuranoside (37° C., 5% CO2, 1 d). ATP levels were quantified using the CellTiter-Glo Luminescent Assay (Promega) as per manufacturer's instructions (N=6/group). Luminescence was measured using a Wallac 1420 microplate reader.

[3] = tested on: neonatal rat CMs (heart cells); assay: Apo-ONE caspase 3/7 assay after serum starvation and taxol on coated surfaces; assay type: cell-based, rat (Sprague-Dawley); settings: serum-starved, overnight taxol, vs control surfaces, FIG. 4
Method: Glass coverslips were coated with Az-chitosan, or Az-chitosan conjugated with QHREDGS, RGDS, or a scrambled peptide (DGQESHR). The cells were then seeded (100,000 cells in 50 μL of CM media; seeding density of 88 cells/mm^2) on each surface (N=3), including plain glass as a control, for 15 min. The cells were then supplemented with serum-free media. After 19 hours, 5 μL of taxol (paclitaxel, Sigma), dissolved at 100 μM in DMSO, was added and maintained for 17 hours and 45 min at which time caspase assay was performed. One set of glass surfaces was not exposed to taxol treatment as a negative control.
The Apo-ONE caspase assay (Promega) was performed according to manufacturer's protocol. The cells were permeabilized and lyzed to release the caspases, which are activated in cells undergoing apoptosis. The assay contains rhodamine 110, bis-(N-CBZ-L-aspartyl-L-glutamyl-L-valyl-L-aspartic acid amide; Z-DEVD-R110). Caspase 3 and 7 are known to cleave the peptide DEVD and the leaving group, rhodamine 110 becomes fluorescent when excited with fluorescent light. The amount of fluorescence is proportional to the level of caspase 3/7 activity in the sample. According to the manufacturer's protocol, the caspase substrate was dissolved in a buffer at 1:100. […] The fluorescence of the buffer was read in the fluorometer at an excitation of 485 nm and a cut off of 520 nm. […]

[4] = tested on: neonatal rat CMs (heart cells); assay: Live/dead (CFDA/PI) staining of heart cells on coated surfaces; assay type: cell-based, rat (Sprague-Dawley); settings: one and three days of incubation, FIG. 2
Method: The day before cells were ready to be seeded, the surfaces in the 12-well plates were sterilized by germicidal UV illumination overnight. The PBS surrounding the surfaces was then aspirated off and 100,000 live cells were pipetted onto each surface in 100 μL of culture media. These surfaces were left in the incubator for 20 to 30 min to allow the cells to begin to adhere, and then supplemented with 1 mL of warm CM media. The cells were cultivated for 8 days, with 100% culture media change every 2-3 days. The initial seeding density of heart cells on peptide-chitosan coated surfaces was 88 cells/mm^2. […] Each type of surface was created in triplicate.
Live dead staining was performed using 5-carboxyfluorescein diacetate acetoxymethly ester (CFDA, Invitrogen), which stains live cells green, and with propidium iodide (PI, Invitrogen), which stains dead cells red, according to the manufacturer's instruction. The samples were incubated in 10 μM of CFDA and 75 μL/mL of PI in PBS for 45 min at 37° C. Three different surfaces were analyzed for each type of sample (N=3) and a total of five images were taken for each surface to get a full representation of the viability of the cells on a surface. In order to quantify the viability, the numbers of live and dead cells were counted separately using the cell counter plug-in on ImageJ.

[5] = tested on: neonatal cardiomyocytes encapsulated in chitosan hydrogels; assay: Functional testing by electrical field stimulation (ET, MCR) of encapsulated cardiomyocytes; assay type: cell-based, rat
From the text: The electrical function of in vitro samples of neonatal cardiomyocytes encapsulated in chitosan hydrogels for 6 d was established by measuring excitation threshold (ET), the minimum voltage required to pace the encapsulated cells simultaneously, and maximum capture rate (MCR) as previously described, (Radisic, Park et al. 2004), the contents of which are incorporated by reference. The MCR is the maximum stimulation rate at which the encapsulated cardiomyocytes can be induced to beat simultaneously, the encapsulated samples were placed between a pair of carbon electrodes immersed in warm Tyrode solution (Sigma, pH 7.4). The ET was measured by stimulating the samples with square pulses of 2 ms width at a frequency of 1 Hz and increasing the output voltage of the stimulator until ˜90% of the cells in the field-of-view were beating synchronously with the stimulator output. The MCR was measured by setting the output at 15 V, and increasing the frequency until most of the cells in the sample were no longer synchronously beating with the driving signal. All measurements were taken using bright field microscopy. The samples were placed in an environmental chamber at 37° C. for the measurements (N=3/group).

QHREDGS (angiopoietin 1 peptide)
increase in colony number ([1]; 50 μM): 14.3%
increase in colony number ([1]; 50 μM, on average): greater than 10 colonies/well
increase in colony number ([1]; 500 μM): 40%
cardiac myocyte ATP levels [2]: substantially increased

Az-chitosan-QHREDGS: QHREDGS peptide covalently conjugated to Az-chitosan by EDC chemistry (also: covalently conjugated to Az-chitosan by EDC chemistry, site not given here)
caspase-3/7 activation [3]: significantly lower levels of caspase-3/7 activation
cell viability (live/dead) [4]: significantly greater cell viability
ET (excitation threshold) ([5]; after six days of cultivation): 7.0 ± 0.4; V and 9.2 ± 0.6 V
MCR (maximum capture rate) ([5]; after six days of cultivation): 4.3 ± 0.1 pps
cardiomyocyte contraction under electrical field stimulation ([5]; end of cultivation period): beat synchronously
